Data published in patent publication US6559101B2, “N- (5, 7-dimethoxy [1, 2, 4] triazolo [1, 5-a] pyrimidin-2-yl) arylsulfonamide compounds and their use as herbicides” (Dow AgroSciences LLC, priority 2000, dated 2003).

How the values were obtained:
Type in all cases: in vivo
[1] = test system: wild poinsettia (Euphorbia heterophylla); assay: Preemergence herbicidal activity; conditions: scored after 3 weeks, 0 no injury, 100 complete kill or no germination
Protocol: (§1) The soil matrix was contained in plastic pots with a surface area of 161 square centimeters. When required to ensure good germination and healthy plants, a fungicide treatment and/or other chemical or physical treatment was applied. A weighed amount, determined by the highest rate to be tested, of each test compound was placed in a 20 mL glass vial and was dissolved in 8 mL of a 97:3 v/v (volume/volume) mixture of acetone and dimethyl sulfoxide to obtain concentrated stock solutions. […] The stock solutions obtained were diluted with a 99.9:0.1 mixture of water and Tween® 155 surfactant (ethoxylated sorbitan fatty acid ester) to obtain application solutions of known concentration. The solutions containing the highest concentration to be tested were prepared by diluting 4 mL aliquots of the stock solution with 8.5 mL of the mixture and lower concentrations were prepared by dilution of appropriate smaller portions of the stock solution. A 2.5 mL aliquot of each solution of known concentration was sprayed evenly onto the soil of each seeded pot using a Cornwall 5.0 mL glass syringe fitted with a TeeJet TN-3 hollow cone nozzle to obtain thorough coverage of the soil in each pot. Control pots were sprayed in the same manner with the aqueous mixture. A highest application rate of 4.48 kg/ha is achieved when 50 mg of test compound is employed. The treated pots and control pots were placed in a greenhouse with an approximately 15 hr photoperiod which was maintained at about 23-29° C. during the day and 22-28° C. during the night. Nutrients and water were added on a regular basis and supplemental lighting was provided with overhead metal halide 1000 Watt lamps as necessary. The water was added by top-irrigation. After 3 weeks the condition of the test plants that germinated and grew as compared with that of the untreated plants that germinated and grew was determined visually and scored on a scale of 0 to 100 percent where 0 corresponds to no injury and 100 corresponds to complete kill or no germination.

[2] = test system: pigweed (Amaranthus retroflexus); assay: Preemergence herbicidal activity; conditions: scored after 3 weeks, 0 no injury, 100 complete kill or no germination
Protocol: as §1

[3] = test system: cocklebur (Xanthium strumarium); assay: Preemergence herbicidal activity; conditions: scored after 3 weeks, 0 no injury, 100 complete kill or no germination
Protocol: as §1

[4] = test system: blackgrass (Alopecurus myosuroides); assay: Preemergence herbicidal activity; conditions: scored after 3 weeks, 0 no injury, 100 complete kill or no germination
Protocol: as §1

[5] = test system: barnyardgrass (Echinochloa crus-galli); assay: Preemergence herbicidal activity; conditions: scored after 3 weeks, 0 no injury, 100 complete kill or no germination
Protocol: as §1

[6] = test system: morningglory (Ipomoea hederacea); assay: Preemergence herbicidal activity; conditions: scored after 3 weeks, 0 no injury, 100 complete kill or no germination
Protocol: as §1

[7] = test system: crabgrass (Digitaria sanguinalis); assay: Preemergence herbicidal activity; conditions: scored after 3 weeks, 0 no injury, 100 complete kill or no germination
Protocol: as §1

[8] = test system: giant foxtail (Setaria faberi); assay: Preemergence herbicidal activity; conditions: scored after 3 weeks, 0 no injury, 100 complete kill or no germination
Protocol: as §1

[9] = test system: Rox orange sorghum (Sorghum bicolor); assay: Preemergence herbicidal activity; conditions: scored after 3 weeks, 0 no injury, 100 complete kill or no germination
Protocol: as §1

[10] = test system: velvetleaf (Abutilion theophrasti); assay: Preemergence herbicidal activity; conditions: scored after 3 weeks, 0 no injury, 100 complete kill or no germination
Protocol: as §1

[11] = test system: lambsquarters (Chenopodium album); assay: Preemergence herbicidal activity; conditions: scored after 3 weeks, 0 no injury, 100 complete kill or no germination
Protocol: as §1

wild oats (Avena fatua) [12] = assay: Preemergence herbicidal activity; conditions: scored after 3 weeks, 0 no injury, 100 complete kill or no germination
Protocol: as §1

[13] = test system: pigweed (Amaranthus retroflexus); assay: Postemergence herbicidal activity; conditions: scored after 2 weeks, 0 no injury, 100 complete kill
Protocol: (§2) Seeds of the desired test plant species were planted in Grace-Sierra MetroMix® 306 planting mixture, which typically has a pH of 6.0 to 6.8 and an organic matter content of about 30 percent, in plastic pots with a surface area of 64 square centimeters. When required to ensure good germination and healthy plants, a fungicide treatment and/or other chemical or physical treatment was applied. The plants were grown for 7-21 days in a greenhouse with an approximately 15 hr photoperiod which was maintained at about 23-29° C. during the day and 22-28° C. during the night. Nutrients and water were added on a regular basis and supplemental lighting was provided with overhead metal halide 1000 Watt lamps as necessary. The plants were employed for testing when they reached the first or second true leaf stage. A weighed amount of each test compound, determined by the highest rate to be tested, was placed in a 20 mL glass vial and was dissolved in 4 mL of a 97:3 v/v (volume/volume) mixture of acetone and dimethyl sulfoxide to obtain concentrated stock solutions. […] The concentrated stock solutions obtained were diluted with an aqueous mixture containing acetone, water, iso-propyl alcohol, dimethyl sulfoxide, Atplus 411F crop oil concentrate, and Triton X-155 surfactant (methylenebisdiamyl phenoxy polyethoxy ethanol) in a 48.5:39:10:1.5:1.0:0.02 v/v ratio to obtain spray solutions of known concentration. The solutions containing the highest concentration to be tested were prepared by diluting 2 mL aliquots of the stock solution with 13 mL of the mixture and lower concentrations were prepared by dilution of appropriate smaller portions of the stock solution. Approximately 1.5 mL aliquots of each solution of known concentration were sprayed evenly onto each of the test plant pots using a Devilbiss atomizer driven by compressed air pressure of 2 to 4 psi (140 to 280 kiloPascals) to obtain thorough coverage of each plant. Control plants were sprayed in the same manner with the aqueous mixture. In this test an application rate of 1 ppm results in the application of approximately 1 g/ha. The treated plants and control plants were placed in a greenhouse as described above and watered by sub-irrigation to prevent wash-off of the test compounds. After 2 weeks the condition of the test plants as compared with that of the untreated plants was determined visually and scored on a scale of 0 to 100 percent where 0 corresponds to no injury and 100 corresponds to complete kill.

[14] = test system: cocklebur (Xanthium strumarium); assay: Postemergence herbicidal activity; conditions: scored after 2 weeks, 0 no injury, 100 complete kill
Protocol: as §2

[15] = test system: blackgrass (Alopecurus myosuroides); assay: Postemergence herbicidal activity; conditions: scored after 2 weeks, 0 no injury, 100 complete kill
Protocol: as §2

[16] = test system: morningglory (Ipomoea hederacea); assay: Postemergence herbicidal activity; conditions: scored after 2 weeks, 0 no injury, 100 complete kill
Protocol: as §2

[17] = test system: wild buckwheat (Polygonum convolvulus); assay: Postemergence herbicidal activity; conditions: scored after 2 weeks, 0 no injury, 100 complete kill
Protocol: as §2

[18] = test system: giant foxtail (Setaria faberi); assay: Postemergence herbicidal activity; conditions: scored after 2 weeks, 0 no injury, 100 complete kill
Protocol: as §2

[19] = test system: Rox orange sorghum (Sorghum bicolor); assay: Postemergence herbicidal activity; conditions: scored after 2 weeks, 0 no injury, 100 complete kill
Protocol: as §2

[20] = test system: chickweed (Stellaria media); assay: Postemergence herbicidal activity; conditions: scored after 2 weeks, 0 no injury, 100 complete kill
Protocol: as §2

[21] = test system: velvetleaf (Abutilion theophrasti); assay: Postemergence herbicidal activity; conditions: scored after 2 weeks, 0 no injury, 100 complete kill
Protocol: as §2

[22] = test system: lambsquarters (Chenopodium album); assay: Postemergence herbicidal activity; conditions: scored after 2 weeks, 0 no injury, 100 complete kill
Protocol: as §2

wild oats (Avena fatua) [23] = assay: Postemergence herbicidal activity; conditions: scored after 2 weeks, 0 no injury, 100 complete kill
Protocol: as §2

viola (Viola tricolor) = assay: Postemergence herbicidal activity; conditions: scored after 2 weeks, 0 no injury, 100 complete kill
Protocol: as §2

## COc1cc(OC)n2nc(NS(=O)(=O)c3c(OCC(F)(F)F)cccc3C(F)(F)F)nc2n1 [Compound 12]
[1]; 17.5 g/Ha
  Preemergence herbicidal activity EPHHL: 90%
[2]; 17.5 g/Ha
  Preemergence herbicidal activity AMARE: 98%
[3]; 17.5 g/Ha
  Preemergence herbicidal activity XANST: 80%
[4]; 17.5 g/Ha
  Preemergence herbicidal activity ALOMY: 70%
[5]; 17.5 g/Ha
  Preemergence herbicidal activity ECHCG: 100%
[6]; 17.5 g/Ha
  Preemergence herbicidal activity IPOHE: 90%
[7]; 17.5 g/Ha
  Preemergence herbicidal activity DIGSA: 80%
[8]; 17.5 g/Ha
  Preemergence herbicidal activity SETFA: 90%
[9]; 17.5 g/Ha
  Preemergence herbicidal activity SORBI: 98%
[10]; 17.5 g/Ha
  Preemergence herbicidal activity ABUTH: 70%
[11]; 17.5 g/Ha
  Preemergence herbicidal activity CHEAL: 100%
Wild oats (Avena fatua) [12]; 17.5 g/Ha
  Preemergence herbicidal activity AVEFA: 30%
[13]; 62.5 ppm
  Postemergence herbicidal activity AMARE: 100%
[14]; 62.5 ppm
  Postemergence herbicidal activity XANST: 100%
[15]; 62.5 ppm
  Postemergence herbicidal activity ALOMY: 60%
[16]; 62.5 ppm
  Postemergence herbicidal activity IPOHE: 98%
[17]; 62.5 ppm
  Postemergence herbicidal activity POLCO: 98%
[18]; 62.5 ppm
  Postemergence herbicidal activity SETFA: 98%
[19]; 62.5 ppm
  Postemergence herbicidal activity SORBI: 90%
[20]; 62.5 ppm
  Postemergence herbicidal activity STEME: 90%
[21]; 62.5 ppm
  Postemergence herbicidal activity ABUTH: 98%
[22]; 62.5 ppm
  Postemergence herbicidal activity CHEAL: 100%
Wild oats (Avena fatua) [23]; 62.5 ppm
  Postemergence herbicidal activity AVEFA: 70%
Viola (Viola tricolor); 62.5 ppm
  Postemergence herbicidal activity VIOTR: 100%

## COc1cc(OC)n2nc(NS(=O)(=O)c3c(C(F)(F)C(F)(F)F)ccnc3OC)nc2n1 [Compound 18]
[1]; 35 g/Ha
  Preemergence herbicidal activity EPHHL: 70%
[2]; 35 g/Ha
  Preemergence herbicidal activity AMARE: 100%
[3]; 35 g/Ha
  Preemergence herbicidal activity XANST: 70%
[4]; 35 g/Ha
  Preemergence herbicidal activity ALOMY: 100%
[5]; 35 g/Ha
  Preemergence herbicidal activity ECHCG: 90%
[6]; 35 g/Ha
  Preemergence herbicidal activity IPOHE: 90%
[7]; 35 g/Ha
  Preemergence herbicidal activity DIGSA: 100%
[8]; 35 g/Ha
  Preemergence herbicidal activity SETFA: 100%
[9]; 35 g/Ha
  Preemergence herbicidal activity SORBI: 100%
[10]; 35 g/Ha
  Preemergence herbicidal activity ABUTH: 95%
[11]; 35 g/Ha
  Preemergence herbicidal activity CHEAL: 100%
Wild oats (Avena fatua) [12]; 35 g/Ha
  Preemergence herbicidal activity AVEFA: 70%
[13]; 31.3 ppm
  Postemergence herbicidal activity AMARE: 100%
[14]; 31.3 ppm
  Postemergence herbicidal activity XANST: 85%
[15]; 31.3 ppm
  Postemergence herbicidal activity ALOMY: 65%
[16]; 31.3 ppm
  Postemergence herbicidal activity IPOHE: 70%
[17]; 31.3 ppm
  Postemergence herbicidal activity POLCO: 60%
[18]; 31.3 ppm
  Postemergence herbicidal activity SETFA: 85%
[19]; 31.3 ppm
  Postemergence herbicidal activity SORBI: 90%
[20]; 31.3 ppm
  Postemergence herbicidal activity STEME: 100%
[21]; 31.3 ppm
  Postemergence herbicidal activity ABUTH: 90%
[22]; 31.3 ppm
  Postemergence herbicidal activity CHEAL: 95%
Wild oats (Avena fatua) [23]; 31.3 ppm
  Postemergence herbicidal activity AVEFA: 50%
Viola (Viola tricolor); 31.3 ppm
  Postemergence herbicidal activity VIOTR: 80%

## COc1cc(OC)n2nc(NS(=O)(=O)c3c(I)ccnc3OC)nc2n1 [Compound 17]
[1]; 17.5 g/Ha
  Preemergence herbicidal activity EPHHL: 100%
[2]; 17.5 g/Ha
  Preemergence herbicidal activity AMARE: 100%
[3]; 17.5 g/Ha
  Preemergence herbicidal activity XANST: 65%
[4]; 17.5 g/Ha
  Preemergence herbicidal activity ALOMY: 99%
[5]; 17.5 g/Ha
  Preemergence herbicidal activity ECHCG: 100%
[6]; 17.5 g/Ha
  Preemergence herbicidal activity IPOHE: 60%
[7]; 17.5 g/Ha
  Preemergence herbicidal activity DIGSA: 100%
[8]; 17.5 g/Ha
  Preemergence herbicidal activity SETFA: 100%
[9]; 17.5 g/Ha
  Preemergence herbicidal activity SORBI: 99%
[10]; 17.5 g/Ha
  Preemergence herbicidal activity ABUTH: 75%
[11]; 17.5 g/Ha
  Preemergence herbicidal activity CHEAL: 100%
Wild oats (Avena fatua) [12]; 17.5 g/Ha
  Preemergence herbicidal activity AVEFA: 90%
[13]; 15.6 ppm
  Postemergence herbicidal activity AMARE: 100%
[14]; 15.6 ppm
  Postemergence herbicidal activity XANST: 90%
[15]; 15.6 ppm
  Postemergence herbicidal activity ALOMY: 90%
[16]; 15.6 ppm
  Postemergence herbicidal activity IPOHE: 70%
[17]; 15.6 ppm
  Postemergence herbicidal activity POLCO: 75%
[18]; 15.6 ppm
  Postemergence herbicidal activity SETFA: 90%
[19]; 15.6 ppm
  Postemergence herbicidal activity SORBI: 90%
[20]; 15.6 ppm
  Postemergence herbicidal activity STEME: 75%
[21]; 15.6 ppm
  Postemergence herbicidal activity ABUTH: 78%
[22]; 15.6 ppm
  Postemergence herbicidal activity CHEAL: 100%
Wild oats (Avena fatua) [23]; 15.6 ppm
  Postemergence herbicidal activity AVEFA: 90%
Viola (Viola tricolor); 15.6 ppm
  Postemergence herbicidal activity VIOTR: 98%
